Measured values: patent publication US12590950B2, “Methods for predicting ER-mediated DNA damage” (UNIVERSITY OF MASSACHUSETTS, priority 2019, dated 2026)
Entries after “also recorded” stand apart in the source; their conditions may differ.

How the values were obtained:
mammary gland = experiment: Acute oral exposure of ovariectomized mice: nuclear γH2AX in mammary gland; type: in vivo, mouse; conditions: 4 days, E2 250, BP3 3,000, PP 10,000 μg/kg/day
Text: (§1) Animal Treatment: Forty mature female mice (8 weeks old) BALB/c mice were purchased from Jackson Laboratory and housed in temperature-controlled facilities with a 12-hour alternating day/night light cycle and fed LabChow 5058 ad libitum. All procedures were in accordance with the national guidelines for the care and use of animals and approved by the University of Massachusetts Amherst's Institutional Animal Care and Use Committee.
(§2) The mice were ovariectomized before treatment. Briefly, each mouse was anaesthetized with a mix of isofluorance and oxygen. The flanks were shaved, sterilized with betadine and cleaned with alcohol. An incision was made to the skin on the right flank. The underlying muscle layer was nicked to reveal a small hole through which ovary was pulled out by grasping the periovarian fat. A Serrifin clamp was used to hold the ovary. After making sure the blood vessels were constricted to prevent […], the ovary was cut from the uterine horn. The periovarian fat was restored into the peritoneum. The peritoneum was closed with one or two stiches and the skin was closed with 9 mm wound clips. The procedure was repeated on the contralateral side. The mouse was monitored for a week post-procedure and wound clips were removed after 10 days. After 1 week of recovery, the mice began an acute oral treatment via pipette with one of three different compounds prepared in tocopherol-stripped corn oil for 4 days. Each mouse was administered 1 μL of oil per gram of body weight to deliver 250 μg/kg/d E2, 3000 μg/kg/d BP3 or 10000 μg/kg/d PP or vehicle control. […]
(§3) Immunostaining of mouse mammary gland: Freshly cut […] paraffin-embedded sections were deparaffinized/rehydrated with 100% xylenes 3 times for 5 min each, 2 times with 100% ethanol for 5 min each, 95% ethanol for 3 min and 70% ethanol for 3 min. […] Analysis of S9.6 intensity per nucleus or foci per nucleus were calculated using Nikon analysis software, where DAPI was used as a mask for the nucleus. […] Positive cells were counted using ImageJ software. 1200 cells were counted to determine percent Ki67 positive.

MCF-7 cells [1] = experiment: γH2AX immunostaining (DNA damage) in MCF-7 cells; type: cell-based, human; conditions: E2 10-100 nM, BP3 1-30 μM, PP 1-30 μM
Method: (§4) Immunostaining: Cells were grown in clearing media for 48 h and plated on 20 mm coverslip in 12 well plates with a density of 2×10^5 cells/well. […] Cells were washed with 1×PBS, blocked in 2% BSA/PBS with 0.1% Triton-X 100 for 1 hr at room temperature (RT), incubated overnight with γH2AX antibody (Cell Signaling #9718 S) or ERα antibody (Santa Cruz Biotechnology #sc-8002) at 4° C. and 1 hour with secondary antibody. S9.6: Cells were fixed in ice-cold 100% methanol for 10 min at −20° C., permeabilized in 100% acetone for 1 min at RT, blocked for 30 min in saline sodium citrate pH 7 (SSC, 4×), 3% BSA, 0.1% Triton-X and incubated with S9.6 (Kerafast #ENH001) 2 hr at RT followed by 1 h with secondary antibody. If indicated, slides were treated with RNase H (NEB #M0297L) for 4 hr at 37° C. prior to incubation with primary antibody. Stained cells were mounted with Vectashield mounting medium containing DAPI (Vector Laboratories #H-1200). Slides were imaged at 60× (immersion oil) with Nikon A1 Spectral Confocal microscope. Analysis of γH2AX and S9.6 intensity per nucleus or foci per nucleus was calculated using Nikon analysis software, where DAPI was used as a mask for the nucleus.

T47D cells [2] = experiment: 53BP1 immunostaining in T47D cells; type: cell-based, human; conditions: E2 10-100 nM, BP3 1-5 μM, PP 1-5 μM
T47D cells [3] = experiment: γH2AX immunostaining (DNA damage) in T47D cells; type: cell-based, human; conditions: T47D, 24 h; E2 10 or 100 nM, BP3 1 or 5 μM, PP 1 or 5 μM; vs control
Method: as §4

mammary epithelium [4] = experiment: Acute oral exposure of ovariectomized mice: nuclear S9.6 staining of mammary epithelium; type: in vivo, mouse; conditions: 4 days, E2 250, BP3 3,000, PP 10,000 μg/kg/day
Text: as §1, §2, §3

MCF-7 cells [5] = experiment: 53BP1 immunostaining in MCF-7 cells; type: cell-based, human; conditions: E2 10-100 nM, BP3 1-5 μM, PP 1-5 μM
T47D cells [6] = experiment: Cell proliferation assay (alamar blue) in T47D cells; type: cell-based, human
Method: Cell Proliferation Assay: T47D cells grown in clearing media for 72 h was plated as 100 μl of cells suspension having 5000 or 10000 cells per well on five 96 well plates (one for each day). The 96 well plate had 12 cell-free wells for a blank and 7 wells per treatment on each plate. After 24 h, 100 μl of E2, BP3 or PP containing media was added to appropriate wells on each plate to reach the desired final concentration in each well. All plates were maintained in a 37° C., 5% CO2 incubator until media was exchanged, on one plate per day, for 10% Alamar Blue in plating media. Plates were read at the same time each day at 4 hr and 8 hr after media exchange on a BioTek Synergy 2 plate reader (Winooski, VT) at 570 nm and 600 nm. Percent alamar blue reduction was calculated as per the following equation on the AlamarBlue protocol: […]

mammary epithelium [7] = experiment: Acute oral exposure of ovariectomized mice: Ki67 proliferation of luminal epithelial cells; type: in vivo, mouse; conditions: 4 days, E2 250, BP3 3,000, PP 10,000 μg/kg/day
Text: as §1, §2, §3

Row | SMILES | nuclear γH2AX intensity in the mammary gland vs vehicle control (mammary gland) | nuclear γH2AX intensity (MCF-7 cells [1]) | 53BP1 nuclear intensity (T47D cells [2]) | nuclear γH2AX intensity (T47D cells [3]) | nuclear S9.6 staining in mammary epithelium over control treated animals (mammary epithelium [4]) [fold] | 53BP1 nuclear intensity (MCF-7 cells [5]) | Slope of growth curve (T47D cells [6]; 5 μM) | Slope of growth curve (T47D cells [6]; 50 μM) | proliferation (T47D cells [6]; 5 or 50 μM) | proliferation (Ki67) of mammary luminal epithelial cells (mammary epithelium [7]) | Slope of growth curve (T47D cells [6]; 0.5 nM) | Slope of growth curve (T47D cells [6]; 1 μM) | Slope of growth curve (T47D cells [6]; 10 μM) | proliferation (T47D cells [6]; 10 μM)
1 | COc1ccc(C(=O)c2ccccc2)c(O)c1 [BP3, 2-Hydroxy-4-methoxybenzophenone] | significantly higher; also recorded: increases | dose-dependent increase in nuclear γH2AX intensity | higher nuclear 53BP1 intensity over control | increased γH2AX intensity | 2.5 | dose-dependent increase | 0.0202 | 0.01581 | marginal effect | neither BP3 nor PP elicited significant responses | – | – | – | –
2 | C[C@]12CC[C@@H]3c4ccc(O)cc4CC[C@H]3[C@@H]1CC[C@@H]2O [E2, 17β-estradiol, reference compound] | significantly higher | dose-dependent increase in nuclear γH2AX intensity | dose-dependent increases in 53BP1 nuclear intensity | dose-dependent increase | 3.8 | dose-dependent increases in 53BP1 nuclear intensity | – | – | – | stimulated | 0.08495 | – | – | –
3 | CCCOC(=O)c1ccc(O)cc1 [PP, propyl parahydroxybenzoate] | increases | dose-dependent increase in nuclear γH2AX intensity | dose-dependent increases in 53BP1 nuclear intensity | significantly higher γH2AX intensity | 3.8 | dose-dependent increases in 53BP1 nuclear intensity | – | – | – | neither BP3 nor PP elicited significant responses | – | 0.01856 | 0.06387 | stimulates significant proliferation
